Laboratory results as given in patent publication US7265096B2 (XenoPort, Inc., priority 2002, dated 2007).

Experiments:
[1] = Pharmacokinetics and intestinal exposure to gemcitabine after oral dosing in mice; format: in vivo; conditions: mice, oral, 20 mg-eq. gemcitabine/kg
Protocol: Blood samples (0.5 mL) were obtained by cardiac puncture from 4 animals at each time point (1, 5, 10, 15, 30, 45 minutes and 1, 2, 4, 6 and 24 hr post-dosing). Samples were immediately transferred to tubes containing 10 μL of tetrahydrouridine (50 μg/mL in 50% methanol/water) to prevent further deamination and aliquots (100 μL) were quenched with a solution of 1% w/w formic acid in acetonitrile (300 μL). Quenched blood samples were stored at −80° C. until analyzed. Following collection of blood samples, the small intestine of each animal was removed, rinsed with saline, scraped to remove the mucosal layer, and the mucosal tissue was transferred to a pre-weighed vial containing 10 μL of tetrahydrouridine (50 μg/mL in 50% methanol/water). Sample vials were snap frozen in dry ice/acetone and stored at −80° C. until analyzed. Mucosal tissue samples were diluted 1:10 in water and 100 μL of the resulting sample was added to 400 μL of methanol.

[2] = molecular target: T1, ENT1 (Homo sapiens, UniProt Q99808); experiment: Mass spectroscopy analysis of active transport into oocytes expressing ENT1; format: cell-based; conditions: 0.1-3 mM, 10-30 minutes, LC/MS/MS, vs non-expressing oocytes
T1 construct: expressed in transfected cells; host or cells: Xenopus laevis oocytes injected with RNA
T1 sequence (Q99808 1-456): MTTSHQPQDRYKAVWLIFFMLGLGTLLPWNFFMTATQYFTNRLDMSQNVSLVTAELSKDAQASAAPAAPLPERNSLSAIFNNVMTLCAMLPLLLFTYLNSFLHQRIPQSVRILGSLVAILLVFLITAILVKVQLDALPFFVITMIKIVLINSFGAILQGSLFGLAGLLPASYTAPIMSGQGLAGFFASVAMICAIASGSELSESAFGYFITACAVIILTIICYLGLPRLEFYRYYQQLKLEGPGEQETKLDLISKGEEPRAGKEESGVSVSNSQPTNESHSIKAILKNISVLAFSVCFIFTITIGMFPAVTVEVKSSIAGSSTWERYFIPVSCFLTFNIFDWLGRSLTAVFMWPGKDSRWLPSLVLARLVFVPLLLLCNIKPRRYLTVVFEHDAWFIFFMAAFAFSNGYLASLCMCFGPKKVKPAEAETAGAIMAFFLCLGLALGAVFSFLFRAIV
Protocol: (§1) (b) Mass Spectroscopy Analysis of Active Transport of Compounds into Oocytes Expressing CNT1, CNT2, CNT3, ENT1 or ENT2
(§2) Transporters were expressed in oocytes as described above (a). Experiments were performed 3-5 days following injection. Oocytes were incubated with 0.1-3 mM of compounds for 10-30 minutes in frog ringers solution (90 mM NaCl, 2 mM KCl, 1 mM MgCl2, 2 mM CaCl2, 10 mM NaHEPES, pH 7.45, and 1% BSA). Experiments were performed at room temperature. For each compound, 4-7 oocytes were incubated for each transporter or non-expressing control. Following incubation, oocytes were rapidly washed 4 times in frog ringers solution, and placed one oocyte per well in a 96 well plate. Oocytes were homogenized in 0.15 mL solution containing 50% ethanol:water or 50% methanol:water. Precipitated protein or cellular matter was pelleted by spinning plates at 3000 RPM for 5 minutes. The solvent layer containing the extracted compounds was removed from wells.
(§3) The concentration of each compound in the oocyte extract was determined by analytical LC/MS/MS. Briefly, concentrations of test compound were determined using an API 2000 LC/MS/MS instrument equipped with an Agilent 1100 binary pump and a CTC HTS-PAL autosampler. The column was a Phenomenex hydro-RP 4.6×50 mm column. The mobile phase was water with 0.1% formic acid, 0.005% heptafluorobutyric acid (A) and acetonitrile with 0.1% formic acid, 0.005% heptafluorobutyric acid (B). The gradient condition was: 5% B for 0.5 min, then to 95% B in 2.5 min, then maintained at 95% B for 1 min. The mobile phase was returned to 5% B for 2 min. A TurboIonSpray source was used on the API 2000. The analysis was done in positive ion mode and an MRM transition of each analyte was first optimized using the standard solution. 10 μL of the samples were injected onto LC/MS/MS system for analysis. The peaks were integrated using Analyst 1.2 quantitation software. Specific uptake was determined by comparison of average uptake in oocytes expressing transporters with uptake in non-expressing oocytes.

[3] = molecular target: T2, ENT2 (Homo sapiens, UniProt Q14542); experiment: Mass spectroscopy analysis of active transport into oocytes expressing ENT2; format: cell-based; conditions: 0.1-3 mM, 10-30 minutes, LC/MS/MS, vs non-expressing oocytes
T2 construct: expressed in transfected cells; host or cells: Xenopus laevis oocytes injected with RNA
T2 sequence (Q14542 1-456): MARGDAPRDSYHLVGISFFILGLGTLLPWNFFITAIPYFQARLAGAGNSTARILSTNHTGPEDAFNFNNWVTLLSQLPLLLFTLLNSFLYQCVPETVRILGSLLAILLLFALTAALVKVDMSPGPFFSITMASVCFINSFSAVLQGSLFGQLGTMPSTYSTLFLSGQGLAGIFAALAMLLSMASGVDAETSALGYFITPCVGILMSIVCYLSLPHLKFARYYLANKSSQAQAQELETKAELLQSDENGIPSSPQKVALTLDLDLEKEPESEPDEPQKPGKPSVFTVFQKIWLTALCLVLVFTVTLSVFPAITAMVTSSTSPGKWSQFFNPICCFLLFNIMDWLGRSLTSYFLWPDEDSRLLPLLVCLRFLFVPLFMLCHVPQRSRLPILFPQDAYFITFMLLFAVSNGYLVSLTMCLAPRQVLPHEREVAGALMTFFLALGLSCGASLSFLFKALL
Protocol: as §1, §2, §3

[4] = molecular target: T3, CNT1 (Homo sapiens, UniProt O00337); experiment: Mass spectroscopy analysis of active transport into oocytes expressing CNT1; format: cell-based; conditions: 0.1-3 mM, 10-30 minutes, LC/MS/MS, vs non-expressing oocytes
T3 construct: expressed in transfected cells; host or cells: Xenopus laevis oocytes injected with in vitro transcribed RNA
T3 sequence (O00337 1-649): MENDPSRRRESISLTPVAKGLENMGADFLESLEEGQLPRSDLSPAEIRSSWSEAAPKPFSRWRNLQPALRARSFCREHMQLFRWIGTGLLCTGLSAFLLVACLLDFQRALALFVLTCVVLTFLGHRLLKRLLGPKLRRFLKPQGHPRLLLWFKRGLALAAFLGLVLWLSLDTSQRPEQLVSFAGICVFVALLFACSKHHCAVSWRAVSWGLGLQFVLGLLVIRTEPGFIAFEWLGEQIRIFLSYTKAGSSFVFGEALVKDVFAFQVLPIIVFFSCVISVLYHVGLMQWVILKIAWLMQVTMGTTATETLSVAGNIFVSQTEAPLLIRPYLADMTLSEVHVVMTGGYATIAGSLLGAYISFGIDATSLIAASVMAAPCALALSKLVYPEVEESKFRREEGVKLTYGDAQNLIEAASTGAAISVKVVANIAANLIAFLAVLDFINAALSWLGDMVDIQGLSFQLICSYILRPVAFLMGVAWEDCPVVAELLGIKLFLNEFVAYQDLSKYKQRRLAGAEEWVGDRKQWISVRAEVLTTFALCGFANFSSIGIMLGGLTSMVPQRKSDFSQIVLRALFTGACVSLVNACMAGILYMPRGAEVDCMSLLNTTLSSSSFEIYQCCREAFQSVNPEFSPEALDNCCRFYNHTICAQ
Source text: (§4) Human CNT1, CNT2 and CNT3 transporter cDNAs were subcloned into a modified pGEM plasmid that contains 5′ and 3′ untranslated sequences from the Xenopus β-actin gene. These sequences increase RNA stability and protein expression. Plasmid cDNA was linear zed and used as template for in vitro transcription (Epicentre Technologies transcription kit, 4:1 methylated:non-methylated GTP).
as §1, §2
The concentration of each compound in the oocyte extract was determined by analytical LC/MS/MS. Briefly, concentrations of test compound were determined using an API 2000 LC/MS/MS instrument equipped with an Agilent 1100 binary pump and a CTC HTS-PAL autosampler. The column was a Phenomenex hydro-RP 4.6×50 mm column. The mobile phase was water with 0.1% formic acid, 0.005% heptafluorobutyric acid (A) and acetonitrile with 0.1% formic acid, 0.005% heptafluorobutyric acid (B). […] The peaks were integrated using Analyst 1.2 quantitation software. Specific uptake was determined by comparison of average uptake in oocytes expressing transporters with uptake in non-expressing oocytes.

[5] = molecular target: T4, CNT3 (Homo sapiens, UniProt Q9HAS3); experiment: Mass spectroscopy analysis of active transport into oocytes expressing CNT3; format: cell-based; conditions: 0.1-3 mM, 10-30 minutes, LC/MS/MS, vs non-expressing oocytes
T4 construct: expressed in transfected cells; host or cells: Xenopus laevis oocytes injected with in vitro transcribed RNA
T4 sequence (Q9HAS3 1-691): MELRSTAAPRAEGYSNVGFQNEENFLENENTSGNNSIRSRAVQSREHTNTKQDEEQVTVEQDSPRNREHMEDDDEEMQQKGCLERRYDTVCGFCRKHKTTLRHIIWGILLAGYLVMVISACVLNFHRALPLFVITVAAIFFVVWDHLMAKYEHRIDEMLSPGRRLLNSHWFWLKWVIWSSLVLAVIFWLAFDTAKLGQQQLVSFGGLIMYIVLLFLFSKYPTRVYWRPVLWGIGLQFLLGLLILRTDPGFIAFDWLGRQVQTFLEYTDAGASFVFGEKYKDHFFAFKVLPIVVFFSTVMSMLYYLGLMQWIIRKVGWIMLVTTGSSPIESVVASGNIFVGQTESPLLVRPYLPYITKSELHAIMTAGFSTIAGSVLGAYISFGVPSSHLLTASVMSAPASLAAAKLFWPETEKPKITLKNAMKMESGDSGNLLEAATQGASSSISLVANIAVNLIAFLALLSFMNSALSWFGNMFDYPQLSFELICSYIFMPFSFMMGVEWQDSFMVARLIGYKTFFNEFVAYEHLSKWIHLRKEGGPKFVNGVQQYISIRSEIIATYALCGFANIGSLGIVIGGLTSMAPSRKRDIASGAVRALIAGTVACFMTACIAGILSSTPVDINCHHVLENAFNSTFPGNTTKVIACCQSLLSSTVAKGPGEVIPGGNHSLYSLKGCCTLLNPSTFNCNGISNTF
Source text: as §4, §1, §2, §3

Compound | Oral bioavailability as gemcitabine (in words) [1] | Specific uptake into oocytes expressing ENT1 [2] | Specific uptake into oocytes expressing ENT2 [3] | Specific uptake into oocytes expressing CNT1 [4] | Specific uptake into oocytes expressing CNT3 [5]
CC(C)[C@H](N)C(=O)O[C@@H]1[C@@H](CO)O[C@@H](n2ccc(N)nc2=O)C1(F)F [Compound 3, β-1-(4-Amino-2-oxo-1H-pyrimidin-1-yl)-3-O-(L-valinyl)-2-deoxy-2,2-difluororibose] | substantial oral bioavailability | – | – | – | –
CCOC(=O)Nc1ccn([C@@H]2O[C@H](CO)[C@@H](O)C2(F)F)c(=O)n1 [Compound 11, β-1-(4-Ethoxycarbonylamino-2-oxo-1H-pyrimidin-1-yl)-2-deoxy-2,2-difluororibose] | substantial oral bioavailability | Significant uptake over background | Significant uptake over background | Significant uptake over background | Significant uptake over background
CCCCCOC(=O)Nc1ccn([C@@H]2O[C@H](CO)[C@@H](O)C2(F)F)c(=O)n1 [Compound 26, β-1-(4-Pentyloxycarbonylamino-2-oxo-1H-pyrimidin-1-yl)-2-deoxy-2,2-difluororibose] | substantial oral bioavailability | specific uptake was observed | specific uptake was observed | – | specific uptake was observed
O=C(Nc1ccn([C@@H]2O[C@H](CO)[C@@H](O)C2(F)F)c(=O)n1)OCC(F)(F)F [Compound 36, β-1-(4-(1,1,1-Trifluoroethyl)oxycarbonylamino-2-oxo-1H-pyrimidin-1-yl)-2-deoxy-2,2-difluororibose] | substantial oral bioavailability | specific uptake was observed | specific uptake was observed | – | specific uptake was observed
C=C(C)OC(=O)Nc1ccn([C@@H]2O[C@H](CO)[C@@H](O)C2(F)F)c(=O)n1 [Compound 38, β-1-(4-(Propen-2-yl)oxycarbonylamino-2-oxo-1H-pyrimidin-1-yl)-2-deoxy-2,2-difluororibose] | substantial oral bioavailability | Significant uptake over background | Significant uptake over background | Significant uptake over background | Significant uptake over background
CC(C)(C)C(=O)OCCCC(=O)Nc1ccn([C@@H]2O[C@H](CO)[C@@H](O)C2(F)F)c(=O)n1 [Compound 62, β-1-[4-(4-Pivaloyloxybutyroylamino)-2-oxo-1H-pyrimidin-1-yl]-2-deoxy-2,2-difluororibose] | substantial oral bioavailability | Significant uptake over background | Significant uptake over background | Significant uptake over background | Significant uptake over background
CC(C)(C)C(=O)OC(OC(=O)NCCOC(=O)Nc1ccn([C@@H]2O[C@H](CO)[C@@H](O)C2(F)F)c(=O)n1)C(C)(C)C (stereo partly shown) [Compound 63] | substantial oral bioavailability | – | – | – | –
